Values quoted from earlier work in article PMC10035389, “Safety, Tolerability, and Pharmacokinetics of TAK-931, a Cell Division Cycle 7 Inhibitor, in Patients with Advanced Solid Tumors: A Phase I First-in-Human Study” (Cancer Research Communications, 2022).

Test system: patients with advanced solid tumors
Details: human, in vivo; cited from earlier work

In the case of `C[C@@]1(c2ncncc2F)NC(=O)c2cc(-c3cn[nH]c3)ccc21` [LY3143921], the “Rate of drug-related orthostatic hypotension” value is given as 50%.
